# Marks after values point to notes of the source that are not given here.
# Legend:
# [1] = system: HCT-116 colon cancer xenografts; assay: Tumor growth inhibition of HCT-116 colon cancer xenografts in tumor-bearing nude mice (tumor volume, TGI %, RTV, T/C %); assay type: in vivo, Balb/c Nude mice; settings: for T/C % (relative tumor proliferation rate): single-dose intraperitoneal, dosage mg/kg: G3, G4, G8 350, G5, G9 325, G6 300, G7 250;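 as to T/C % (relative tumor proliferation rate): control C is the vehicle-treated model control group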
# Outline: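 Nude mice inoculated with HCT-116 cells (about 3×10^7 cells/mL in serum-free medium). Tumor diameter measured three times weekly and volume computed as V=3/4π(D/2)^3. Activity expressed as TGI (%) and T/C (%) from relative tumor volume Vt/V0, with V0 taken at grouping and dosing start; P<0.05 significant.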
# ICR mice = assay: in vivo; settings: female ICR mice; single-dose ip
# Outline: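 Female SPF ICR mice received a single ip dose in ethanol/Cremophor EL/saline (5:5:90), with dose lowered after deaths and raised otherwise. MTD defined as dose causing no death, no >10% weight loss versus Day 0 and no significant side effects; daily weights and twice-daily clinical observation over 7-14 days.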
# [2] = Outline: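 Female SPF Balb/c nude mice bearing subcutaneous HCT-116 xenografts (3×10^6 cells, right hind limb), grouped at 60–150 mm^3, 6 per group; vehicle ethanol/Cremophor EL/saline 5:5:90. Body weight thrice weekly; tumours excised and weighed at sacrifice; Mean±SEM, unpaired t-test, P<0.05.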
# [3] = Day 0, G3-G9 groups, single IP dose, Mean±SEM
# [4] = Day 4, G3-G9 groups, single IP dose, Mean±SEM
# [5] = Day 6, G3-G9 groups, single IP dose, Mean±SEM
# [6] = Day 8, G3-G9 groups, single IP dose, Mean±SEM
# [7] = Day 11, G3-G9 groups, single IP dose, Mean±SEM
# [8] = Day 13, G3-G9 groups, single IP dose, Mean±SEM
# [9] = Day 15, G3-G9 groups, single IP dose, Mean±SEM
# [10] = Day 18, G3-G9 groups, single IP dose, Mean±SEM
# [11] = Day 20, G3-G9 groups, single IP dose, Mean±SEM
# [12] = Day 22, G3-G9 groups, single IP dose, Mean±SEM
smiles,measurement,setting,value
"CC(C)(C)OC(=O)Nc1ccn([C@@H]2O[C@H](CO)[C@@H](O)C2(F)F)c(=O)n1 [Compound G3, 4N-(t-butyloxycarbonyl)-2′deoxy-2′,2′-difluorocytidine]",Day 0 (RTV),[1]; [3],1.00 ± 0.00
same,"Tumor volume, Day 0",[1]; [3],52.61 ± 13.58** mm^3
same,T/C % (relative tumor proliferation rate),[1]; Day 0,0.00%
same,Day 4 (TGI %),"[1]; Day 4, G3-G9 groups, single IP dose",57.58%
same,Day 4 (RTV),[1]; [4],1.72 ± 0.37
same,"Tumor volume, Day 4",[1]; [4],113.01 ± 44.54 mm^3
same,T/C % (relative tumor proliferation rate),[1]; Day 4,91.44%
same,Day 6 (TGI %),"[1]; Day 6, G3-G9 groups, single IP dose",57.20%
same,Day 6 (RTV),[1]; [5],3.21 ± 0.87
same,"Tumor volume, Day 6",[1]; [5],180.94 ± 66.04* mm^3
same,T/C % (relative tumor proliferation rate),[1]; Day 6,106.22%
same,Day 8 (TGI %),"[1]; Day 8, G3-G9 groups, single IP dose",58.10%
same,Day 8 (RTV),[1]; [6],3.91 ± 1.20
same,"Tumor volume, Day 8",[1]; [6],220.12 ± 86.80* mm^3
same,T/C % (relative tumor proliferation rate),[1]; Day 8,104.00%
same,Day 11 (TGI %),"[1]; Day 11, G3-G9 groups, single IP dose",48.19%
same,Day 11 (RTV),[1]; [7],7.44 ± 23.2
same,"Tumor volume, Day 11",[1]; [7],416.66 ± 160.05 mm^3
same,T/C % (relative tumor proliferation rate),[1]; Day 11,125.12%
same,Day 13 (TGI %),"[1]; Day 13, G3-G9 groups, single IP dose",54.18%
same,Day 13 (RTV),[1]; [8],8.92 ± 2.48
same,"Tumor volume, Day 13",[1]; [8],531.90 ± 203.98* mm^3
same,T/C % (relative tumor proliferation rate),[1]; Day 13,103.73%
same,Day 15 (TGI %),"[1]; Day 15, G3-G9 groups, single IP dose",46.45%
same,Day 15 (RTV),[1]; [9],13.32 ± 4.00
same,"Tumor volume, Day 15",[1]; [9],756.53 ± 280.79 mm^3
same,T/C % (relative tumor proliferation rate),[1]; Day 15,127.18%
same,Day 18 (TGI %),"[1]; Day 18, G3-G9 groups, single IP dose",45.71%
same,Day 18 (RTV),[1]; [10],17.04 ± 5.01
same,"Tumor volume, Day 18",[1]; [10],1004.83 ± 385.58 mm^3
same,T/C % (relative tumor proliferation rate),[1]; Day 18,123.71%
same,Day 20 (TGI %),"[1]; Day 20, G3-G9 groups, single IP dose",41.37%
same,Day 20 (RTV),[1]; [11],21.58 ± 6.58
same,"Tumor volume, Day 20",[1]; [11],1242.64 ± 464.52 mm^3
same,T/C % (relative tumor proliferation rate),[1]; Day 20,136.12%
same,Day 22 (RTV),[1]; [12],24.39 ± 7.52
same,"Tumor volume, Day 22",[1]; [12],1390.74 ± 510.70 mm^3
same,T/C % (relative tumor proliferation rate),[1]; Day 22,125.42%
same,maximum value of TGI %,"[1]; day of maximum: G3 Day 8, G4 Day 11, G5 Day 11, G9 Day 4, G7 Day 8, single IP",58.10%
same,"dose that could be tolerated (maximum tolerated dose, MTD)",ICR mice,350 mg/kg
same,"Weight change rate, Day 0",[2]; [3],0.00 ± 0.00%
same,"Weight of mice, Day 0",[2]; [3],20.47 ± 0.42 g
same,"Weight change rate, Day 4",[2]; [4],3.13 ± 1.03 %
same,"Weight of mice, Day 4",[2]; [4],21.10 ± 0.41 g
same,"Weight change rate, Day 6",[2]; [5],4.36 ± 0.88%
same,"Weight of mice, Day 6",[2]; [5],21.35 ± 0.39 g
same,"Weight change rate, Day 8",[2]; [6],2.86 ± 2.28%
same,"Weight of mice, Day 8",[2]; [6],21.03 ± 0.52 g
same,"Weight change rate, Day 11",[2]; [7],4.67 ± 0.64%
same,"Weight of mice, Day 11",[2]; [7],21.43 ± 0.56 g
same,"Weight change rate, Day 13",[2]; [8],6.20 ± 0.88 %
same,"Weight of mice, Day 13",[2]; [8],21.75 ± 0.60 g
same,"Weight change rate, Day 15",[2]; [9],3.40 ± 1.34%
same,"Weight of mice, Day 15",[2]; [9],21.18 ± 0.66 g
same,"Weight change rate, Day 18",[2]; [10],2.66 ± 1.40%
same,"Weight of mice, Day 18",[2]; [10],21.03 ± 0.68 g
same,"Weight change rate, Day 20",[2]; [11],2.40 ± 1.27%
same,"Weight of mice, Day 20",[2]; [11],20.98 ± 0.68 g
same,"Weight change rate, Day 22",[2]; [12],3.33 ± 2.34%
same,"Weight of mice, Day 22",[2]; [12],21.17 ± 0.77 g
same,Day 22 Mortality,"[2]; Day 22, single IP dose (mg/kg)",0%
same,clinical symptoms,"[2]; after single IP dose, compared with model control group",no significant differences in clinical symptoms

# — patent US10174067B2, “Type of cytidine derivative and application thereof” (priority 2014, dated 2019)
